From ChEMBL document CHEMBL1201862, “PubChem BioAssay data set” (2004)
Activity calls are given as the source filed them.

Legend:
[1] = Late stage counterscreen for inhibitors of Trypanosoma brucei methionyl tRNA synthetase (MetRS): Luminescence-based cell-based high throughput dose response assay to identify compounds that are cytotoxic to Jurkat human T lymphocyte cells.; type: functional
Galanin receptor type 3 = Galanin receptor type 3 (Homo sapiens, UniProt O60755); test: Fluorescence-based cell-based primary high throughput dose response assay to identify antagonists of the Galanin Receptor 3 (GalR3).; type: functional
Chain of Galanin receptor type 3 (O60755 whole entry): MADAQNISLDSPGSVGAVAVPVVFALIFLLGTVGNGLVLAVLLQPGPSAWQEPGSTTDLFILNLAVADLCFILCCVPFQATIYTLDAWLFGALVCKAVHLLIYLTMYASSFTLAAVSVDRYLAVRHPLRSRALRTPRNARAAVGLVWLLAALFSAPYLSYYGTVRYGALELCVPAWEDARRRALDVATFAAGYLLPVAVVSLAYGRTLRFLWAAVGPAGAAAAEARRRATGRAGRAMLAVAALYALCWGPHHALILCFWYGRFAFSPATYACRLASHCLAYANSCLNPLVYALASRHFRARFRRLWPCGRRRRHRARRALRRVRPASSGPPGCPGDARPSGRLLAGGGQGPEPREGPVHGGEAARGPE

cells = type: functional, cell-based; settings: HEK-CNG
[2] = THP-1 cell cytotoxicity, cytotoxicity control, set 6 (AID 602433); type: functional; settings: Mycobacterium tuberculosis
[3] = HeLa cell cytotoxicity, dose response, cytotoxicity control, 24 h, plate reader, dry powder (AID 686928); type: functional, cell-based
[4] = Vero cell cytotoxicity, cytotoxicity control for M. tuberculosis inhibitor project, purified and synthesized samples, set 8 (AID 602431); type: functional; settings: Mycobacterium tuberculosis
[5] = molecular target: Botulinum neurotoxin type F (Clostridium botulinum, UniProt P30996); test: High-throughput multiplex microsphere dose response for inhibitors of toxin protease, specifically Botulinum neurotoxin light chain F protease, compounds from Cherry Pick 02.; type: functional; settings: read-out: EC50_MICROM
Chain of Botulinum neurotoxin type F (P30996 1-436 limits assumed): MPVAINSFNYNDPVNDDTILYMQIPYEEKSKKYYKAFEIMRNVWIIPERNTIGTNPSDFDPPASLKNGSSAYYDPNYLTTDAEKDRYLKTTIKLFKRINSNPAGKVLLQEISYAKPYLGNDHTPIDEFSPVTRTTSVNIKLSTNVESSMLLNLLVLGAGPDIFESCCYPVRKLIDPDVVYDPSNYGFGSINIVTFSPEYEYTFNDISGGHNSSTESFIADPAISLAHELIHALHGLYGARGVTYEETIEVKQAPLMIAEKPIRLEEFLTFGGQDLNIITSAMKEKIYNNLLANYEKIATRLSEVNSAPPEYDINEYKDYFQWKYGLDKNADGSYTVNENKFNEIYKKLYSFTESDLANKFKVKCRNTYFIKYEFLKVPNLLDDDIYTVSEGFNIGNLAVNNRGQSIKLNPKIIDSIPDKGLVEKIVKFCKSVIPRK

[6] = miR-122 activators in hepatoma reporter cells, dose response, cell-based, Huh7 psiCHECK-miR122, Renilla luciferase, cherry-picked (AID 651956); type: functional;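 also: huh7 hepatoma cells stably carrying a psiCHECK-2 miR-122 sensor plasmid; renilla luciferase signal reporting endogenous miR-122 activity after 48 h compound exposure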
[7] = inhibitors of LMP1-driven NF-kB reporter, dose response, cell-based, EBV LMP1, luciferase, dry powder, set 2 (AID 624361); type: functional
[8] = LMP1-driven NF-kB reporter inhibition, dose response, cell-based, luciferase reporter, luminescence, dry powder, set 2 (AID 624376); type: functional
[9] = IOSE-T80 ovarian epithelial cell cytotoxicity, dose response, cytotoxicity control for PAX8 inhibitor project, plate reader, dry powder samples (AID 743045); type: functional, cell-based
[10] = NIH:OVCAR-3 ovarian cancer cell cytotoxicity, dose response, PAX8 inhibitor project, plate reader, dry powder samples (AID 743044); type: functional, cell-based
Paired box protein Pax-8 = Paired box protein Pax-8 (Homo sapiens, UniProt Q06710); test: inhibitors of PAX8-driven TPO luciferase reporter, dose response, RMG-I cells, cherry-pick (AID 687027); type: functional, cell-based;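 also: luciferase reporter driven by Pax8 target thyroperoxidase promoter measured by SteadyGlo luminescence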
Chain of Paired box protein Pax-8 (Q06710 whole entry): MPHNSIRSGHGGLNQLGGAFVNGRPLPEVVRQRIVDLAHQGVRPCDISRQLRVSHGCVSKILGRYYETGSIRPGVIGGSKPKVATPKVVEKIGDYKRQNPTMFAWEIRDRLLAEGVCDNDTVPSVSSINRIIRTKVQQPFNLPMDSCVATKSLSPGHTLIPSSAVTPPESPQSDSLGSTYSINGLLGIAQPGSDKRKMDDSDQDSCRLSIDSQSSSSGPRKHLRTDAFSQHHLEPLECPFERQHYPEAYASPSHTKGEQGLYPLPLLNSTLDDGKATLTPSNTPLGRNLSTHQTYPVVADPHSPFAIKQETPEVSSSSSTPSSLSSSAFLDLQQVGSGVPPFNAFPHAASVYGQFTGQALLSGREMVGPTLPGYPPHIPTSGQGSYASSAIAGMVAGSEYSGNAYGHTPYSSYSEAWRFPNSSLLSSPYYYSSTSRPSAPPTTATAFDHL

[11] = cytotoxicity in OVCAR8 ovarian cancer cells, dose response, PAX8 project, cell-based, plate reader, dry powder samples (AID 743197); type: functional; settings: OVCAR-8
[12] = A2780 ovarian cancer cell cytotoxicity, dose response, cytotoxicity control, plate reader, dry powder samples (AID 743046); type: functional, cell-based
[13] = IGROV1 ovarian cancer cell cytotoxicity, dose response, PAX8 inhibitor project, plate reader, dry powder samples (AID 743043); type: functional, cell-based; settings: IGROV-1
[14] = molecular target: T1, Scavenger receptor class B member 1 (Mus musculus, UniProt Q61009); test: inhibitors of SR-BI dependent HDL uptake, dose response, ldlA[mSR-BI] CHO cells, fluorescence plate reader, dry powder, set 9 (AID 623880); type: functional, cell-based
T1 sequence (Q61009 whole entry): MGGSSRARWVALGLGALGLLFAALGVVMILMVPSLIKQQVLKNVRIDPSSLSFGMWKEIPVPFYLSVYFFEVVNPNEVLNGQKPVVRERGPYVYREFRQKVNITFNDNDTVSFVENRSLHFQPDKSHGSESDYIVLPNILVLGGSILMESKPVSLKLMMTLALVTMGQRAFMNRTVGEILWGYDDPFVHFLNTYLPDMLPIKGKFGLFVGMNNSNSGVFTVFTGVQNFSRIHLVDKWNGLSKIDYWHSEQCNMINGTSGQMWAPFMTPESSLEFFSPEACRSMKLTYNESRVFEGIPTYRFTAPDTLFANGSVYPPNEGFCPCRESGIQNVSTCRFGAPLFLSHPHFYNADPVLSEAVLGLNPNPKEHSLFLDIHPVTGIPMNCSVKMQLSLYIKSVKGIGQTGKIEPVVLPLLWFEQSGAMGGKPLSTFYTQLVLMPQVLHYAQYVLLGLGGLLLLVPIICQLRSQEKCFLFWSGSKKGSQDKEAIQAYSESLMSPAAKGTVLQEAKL

[15] = molecular target: T1, Scavenger receptor class B member 1; test: inhibitors of SR-BI-mediated HDL uptake, dose response, cell-based, ldlA[mSR-BI] CHO, DiI fluorescence, dry powder, set 10 (AID 624029); type: functional
[16] = MITF Orthogonal Assay: SK-MEL-5 CTG Assay Measured in Cell-Based System Using Plate Reader - 2084-02_Inhibitor_Dose_DryPowder_Activity_Set7.; type: functional
[17] = TRPM1 promoter luciferase reporter signal decrease, dose response, MITF inhibitor project, cell-based, SK-MEL-5, dry powder, set 8 (AID 624430); type: functional
[18] = MITF: Counter assay: A375 proliferation Measured in Cell-Based System Using Plate Reader - 2084-03_Inhibitor_Dose_DryPowder_Activity_Set8.; type: functional; settings: A-375
[19] = Late stage assay provider results from the probe development effort to identify selective inhibitors of heat shock protein 90 (HSP90): Absorbance-based cell proliferation assay in MCF7 cells.; type: functional
[20] = Late stage assay provider results from the probe development effort to identify selective inhibitors of heat shock protein 90 (HSP90): Absorbance-based cell proliferation assay in SKBR3 cells.; type: functional; settings: SK-BR-3
[21] = molecular target: T2, Trace amine-associated receptor 1 (Homo sapiens, UniProt Q96RJ0); test: Counterscreen for antagonists of the human trace amine associated receptor 1 (hTAAR1): Fluorescence-based cell-based high throughput dose response assay to identify TAAR1 Agonists.; type: functional
T2 sequence (Q96RJ0 whole entry): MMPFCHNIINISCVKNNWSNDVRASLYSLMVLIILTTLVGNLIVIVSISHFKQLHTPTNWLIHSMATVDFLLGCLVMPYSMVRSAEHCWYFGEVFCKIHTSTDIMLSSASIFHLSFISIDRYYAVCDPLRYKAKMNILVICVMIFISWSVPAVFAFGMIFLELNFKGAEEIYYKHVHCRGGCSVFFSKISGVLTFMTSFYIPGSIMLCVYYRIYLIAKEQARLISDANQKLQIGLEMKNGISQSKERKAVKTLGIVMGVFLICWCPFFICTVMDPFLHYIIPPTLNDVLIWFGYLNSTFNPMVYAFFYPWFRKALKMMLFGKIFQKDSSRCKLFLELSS

[22] = molecular target: T2, Trace amine-associated receptor 1; test: Fluorescence-based cell-based high throughput dose response assay to identify antagonists of the human trace amine associated receptor 1 (TAAR1).; type: functional
[23] = Counterscreen for […] of the human trace amine associated receptor 1 (TAAR1): Fluorescence-based cell-based high throughput dose response assay to identify nonselective Ga16 agonists.; type: functional
[24] = Counterscreen for antagonists of the human trace amine associated receptor 1 (hTAAR1): Fluorescence-based cell-based high throughput dose response assay to identify nonselective Ga16 antagonists.; type: functional

Structure (SMILES): O=C(CN1CCSC1=NCc1ccccc1)c1ccc(Cl)c(Cl)c1
- IC50 [1]: 83.2 µM (inactive)

Structure (SMILES): Cc1onc(-c2ccccc2Cl)c1C(=O)NNC(=O)c1cccc(F)c1
- IC50 (Galanin receptor type 3): > 29.9 µM (inactive)
- EC50 (cells): > 29.9 µM (inactive)

Structure (SMILES): O=C(CSc1nc2ccccc2c(=O)[nH]1)NC1CCCCC1
- CC50 [2]: > 100 µM (inconclusive)
- AC50 [3]: > 160 µM (inactive)
- CC50 [4]: > 100 µM (inconclusive)

Structure (SMILES): COc1ccccc1Cc1c(-c2ccc(F)cc2)nc2cc(C)c(Br)c(C)n12
- EC50 [5]: > 20 µM (inactive)

Structure (SMILES): COc1ccccc1C#Cc1cnc2c(c1)C(=O)N([C@H](C)CO)C[C@H](C)[C@@H](CN(C)C(=O)c1ccc3c(c1)OCO3)O2
- AC50 [6]: 13.6 µM (active)
- AbsAC35 [7]: 41.32 µM
- AbsAC35 [8]: 52.21 µM

Structure (SMILES): Cc1ccc(S(=O)(=O)Nc2ccc3c(c2)C(=O)N([C@H](C)CO)C[C@H](C)[C@@H](CN(C)S(=O)(=O)c2ccc(F)cc2)OCCCC[C@H](C)O3)cc1
- AC50 [9]: 6.87 µM (active)
- AC50 [10]: 9 µM (active)
- AC50 (Paired box protein Pax-8): 2.11 µM (active)
- AC50 [11]: 11 µM (active)
- AC50 [12]: 7.45 µM (active)
- AC50 [13]: 14.8 µM (active)

Structure (SMILES): Cc1noc(C)c1S(=O)(=O)Nc1ccc2c(c1)C(=O)N([C@H](C)CO)C[C@@H](C)[C@H](CN(C)S(=O)(=O)c1ccc(Cl)cc1)O2
- AC50 [14]: 0.158 µM (active)
- AC50 [15]: 0.123 µM (active)

Structure (SMILES): O=C1C=C(Nc2cccc(Cl)c2)C(=O)c2ccccc21
- AC50 [16]: 0.683 µM (active)
- AC50 [17]: 23.9 µM (active)
- AC50 [18]: 22.3 µM (active)

Structure (SMILES): O=C(O)c1cccc(COc2ccc3cc(Br)c(=O)oc3c2)c1
- IC50 [19]: > 100 µM (inactive)
- IC50 [20]: > 100 µM (inactive)

Structure (SMILES): CSC(=S)N/N=C/c1c[nH]c2ccccc12
- EC50 [21]: > 29.9 µM (inactive)
- IC50 [22]: 2.6 µM (active)
- EC50 [23]: > 29.9 µM (inactive)
- IC50 [24]: 28.1 µM (inactive)
